Results: article PMC3048208 (British Journal of Cancer, 2011)
“Also recorded” adds a separate entry of the source. Counter-ions that a name gives are not always drawn. Like-named read-outs stand apart in the source and are kept apart here.

How the values were obtained:
[1] = tested on: acetylated histone H3 (AcH3) in PBMCs; experiment: AcH3 levels in PBMCs by western blot; assay type: in vivo, human
Procedure: Based on the preclinical data showing parallel changes in AcH3 in PBMCs and tumour tissue, PBMCs were selected for study in the phase I trial ([Novotny-Diermayr et al, 2008]; [Yong et al, 2009]).
Whole blood samples for PD evaluation were taken in cycle 1, days 1 and 15 at pre-dose followed by 3 and 24 h post-dose. For each sample, blood was collected at room temperature in an 8-ml BD Vacutainer CPT tube (Becton, Dickson and Company, Franklin Lakes, NJ, USA). Blood samples were processed in a refrigerated centrifuge within 30 min of collection to preserve histone acetylation status. PBMCs were extracted from blood, processed to pellet form and stored at −80°C. Levels of AcH3 in PBMCs were determined using a validated western blot technique ([Novotny-Diermayr et al, 2008]).

[2] = tested on: cancer cells; design: method as in Novotny-Diermayr et al, 2010; conditions: ref Novotny-Diermayr et al, 2010; cited from earlier work
[3] = tested on: HCT-116 cells; design: method as in Novotny-Diermayr et al, 2010; conditions: ref Novotny-Diermayr et al, 2010; cited from earlier work
[4] = Plasma pharmacokinetics of SB939 in patients, LC–MS/MS, non-compartmental; assay type: in vivo, human; conditions: for AUC(0-inf) / Cmax / half-life / Tmax: human, plasma
Procedure: Pre-dose PK assessment was also performed on day 15 of treatment.
Whole blood was collected into a 3-ml blood tubes containing K2EDTA anti-coagulant and centrifuged at 1000 g for 10 min at 4°C. Plasma was kept as an aliquot and frozen at −80°C. […] The samples were centrifuged at 1200 g for 10 min at 4°C, and the supernatant was stored at −80°C until analysis at MPI Research, Mattawan, MI, USA. Pharmacokinetic parameters were calculated by a non-compartmental method using WinNonlin 4.0 software (Pharsight Corporation, Mountain View, CA, USA). Peak plasma concentration (Cmax) and time to peak concentration (Tmax) were estimated from the plasma drug concentration–time curve. The elimination half-life (T1/2) during the log-linear terminal phase was calculated from the elimination rate constant determined by a linear regression analysis. The area under the concentration time curve extrapolated to infinity (AUC0−∞) was calculated by the log-linear trapezoidal method for the observed values, with extrapolation to infinity including at least three points on the terminal phase.

[5] = design: method as in Novotny-Diermayr et al, 2010; conditions: animal pre-clinical models; ref Novotny-Diermayr et al, 2010; cited from earlier work
[6] = tested on: class I, II and IV HDACs; conditions: in vitro; ref Novotny-Diermayr et al, 2010; cited from earlier work
[7] = tested on: xenograft models of colon (HCT-116), ovarian (A2780) and prostate (PC3, DU145) carcinomas; design: method as in Novotny-Diermayr et al, 2010; conditions: ref Novotny-Diermayr et al, 2010, cited from earlier work
[8] = tested on: dog; conditions: 3 days per week in a 28-day cycle; cited from earlier work
[9] = tested on: other zinc-binding enzymes; design: method as in Novotny-Diermayr et al, 2010; conditions: in vitro; ref Novotny-Diermayr et al, 2010; cited from earlier work
[10] = tested on: patients with solid tumours; design: method as in Yong et al, 2008; conditions: three times weekly, 3 out of 4 weeks; ref Yong et al, 2008; cited from earlier work
[11] = tested on: wide variety of cell lines; design: method as in Novotny-Diermayr et al, 2010; conditions: in vitro; ref Novotny-Diermayr et al, 2010; cited from earlier work
[12] = oral, 10 mg, Day 1, dose level 1, 10 mg, 3 days every 2 weeks
[13] = oral, 10 mg, Day 1, dose level 2, 10 mg
[14] = oral, 10 mg, Day 3 or 5, dose level 1, 10 mg, 3 days every 2 weeks
[15] = oral, 10 mg, Day 3 or 5, dose level 2, 10 mg
[16] = oral, 20 mg, Day 1, dose level 3, 20 mg
[17] = oral, 20 mg, Day 3 or 5, dose level 3, 20 mg
[18] = oral, 30 mg, Day 1, dose level 4, 30 mg
[19] = oral, 30 mg, Day 3 or 5, dose level 4, 30 mg
[20] = oral, 50 mg, Day 1, dose level 5, 50 mg
[21] = oral, 50 mg, Day 3 or 5, dose level 5, 50 mg
[22] = oral, 60 mg, Day 1, dose level 5.5, 60 mg
[23] = oral, 60 mg, Day 3 or 5, dose level 5.5, 60 mg
[24] = oral, 70 mg, Day 1, dose level 6, 70 mg
[25] = oral, 70 mg, Day 3 or 5, dose level 6, 70 mg
[26] = oral, 90 mg, Day 1, dose level 7, 90 mg
[27] = oral, 90 mg, Day 3 or 5, dose level 7, 90 mg

For `CCCCc1nc2cc(/C=C/C(=O)NO)ccc2n1CCN(CC)CC` [SB939, 3-[2-butyl-1-(2-diethylaminoethyl)-1H-benzoimidazol-5-yl]-N-hydroxyacrylami-hydrochloride], the “Dose–PD relationship of AcH3” value ([1]; 10 to 90 mg) is given as “no clear dose–PD relationship”, the “Change in AcH3 in PBMCs” value ([1]; cycle 1, 3 h or 24 h post-treatment) is given as “Increases in AcH3 were seen” and the “Immunoblot changes after treatment” value [2] is given as “accumulation of acetylated histone H3 (AcH3) and acetylated α-tubulin, as well as increased expression levels of the cyclin dependant kinase inhibitor p21”. For the same compound, the “Effectiveness compared with vorinostat” value [3] was “more effective than vorinostat”, the “Dose proportionality of mean AUC” value ([4]; between 10 and 90 mg) was “dose-proportional increases in AUC; also recorded: increased dose proportionally” and the “Accumulation on Day 5 compared with Day 1” value ([4]; daily x 5 dosing) was “no accumulation”. For the same compound, the AUC(0-inf) [4, 12] was 127 ng·h/mL, the Cmax [4, 12] was 14.6 ng/mL and the half-life ([4]; oral, 10 mg, Day 1, dose level 1, 10 mg, 3 days every 2 weeks, read-out: T1/2, mean (converted)) was 7.1 h. For the same compound, the Tmax ([4]; oral, 10 mg, Day 1, dose level 1, 10 mg, 3 days every 2 weeks, read-out: Tmax, mean) was 2.5 h, the AUC(0-inf) [4, 13] was 137 ng·h/mL and the Cmax [4, 13] was 19.5 ng/mL. For the same compound, the half-life ([4]; oral, 10 mg, Day 1, dose level 2, 10 mg, read-out: T1/2, mean (converted)) was 8.6 h, the Tmax ([4]; oral, 10 mg, Day 1, dose level 2, 10 mg, read-out: Tmax, mean) was 1.1 h and the AUC(0-inf) [4, 14] was 147 ng·h/mL. It also gave a Cmax [4, 14] of 18.3 ng/mL, a half-life ([4]; oral, 10 mg, Day 3 or 5, dose level 1, 10 mg, 3 days every 2 weeks, read-out: T1/2, mean (converted)) of 8.3 h and a Tmax ([4]; oral, 10 mg, Day 3 or 5, dose level 1, 10 mg, 3 days every 2 weeks, read-out: Tmax, mean) of 1.3 h. The AUC(0-inf) [4, 15] was 188 ng·h/mL, the Cmax [4, 15] was 23.3 ng/mL and the half-life ([4]; oral, 10 mg, Day 3 or 5, dose level 2, 10 mg, read-out: T1/2, mean (converted)) was 8.1 h. For the same compound, the Tmax ([4]; oral, 10 mg, Day 3 or 5, dose level 2, 10 mg, read-out: Tmax, mean) was 1.3 h, the AUC(0-inf) [4, 16] was 244 ng·h/mL and the Cmax [4, 16] was 45.9 ng/mL. For the same compound, the half-life ([4]; oral, 20 mg, Day 1, dose level 3, 20 mg, read-out: T1/2, mean (converted)) was 5.9 h, the Tmax ([4]; oral, 20 mg, Day 1, dose level 3, 20 mg, read-out: Tmax, mean) was 1.5 h and the AUC(0-inf) [4, 17] was 424 ng·h/mL. It also gave a Cmax [4, 17] of 51.3 ng/mL, a half-life ([4]; oral, 20 mg, Day 3 or 5, dose level 3, 20 mg, read-out: T1/2, mean (converted)) of 7.7 h and a Tmax ([4]; oral, 20 mg, Day 3 or 5, dose level 3, 20 mg, read-out: Tmax, mean) of 1.6 h. For the same compound, the AUC(0-inf) [4, 18] was 384 ng·h/mL, the Cmax [4, 18] was 55.8 ng/mL and the half-life ([4]; oral, 30 mg, Day 1, dose level 4, 30 mg, read-out: T1/2, mean (converted)) was 8.6 h. The Tmax ([4]; oral, 30 mg, Day 1, dose level 4, 30 mg, read-out: Tmax, mean) was 1.8 h, the AUC(0-inf) [4, 19] was 544 ng·h/mL and the Cmax [4, 19] was 74.3 ng/mL. The half-life ([4]; oral, 30 mg, Day 3 or 5, dose level 4, 30 mg, read-out: T1/2, mean (converted)) was 8.8 h, the Tmax ([4]; oral, 30 mg, Day 3 or 5, dose level 4, 30 mg, read-out: Tmax, mean) was 1.6 h and the AUC(0-inf) [4, 20] was 661 ng·h/mL. The Cmax [4, 20] was 124 ng/mL, the half-life ([4]; oral, 50 mg, Day 1, dose level 5, 50 mg, read-out: T1/2, mean (converted)) was 5.6 h and the Tmax ([4]; oral, 50 mg, Day 1, dose level 5, 50 mg, read-out: Tmax, mean) was 1.6 h. For the same compound, the AUC(0-inf) [4, 21] was 794 ng·h/mL, the Cmax [4, 21] was 101 ng/mL and the half-life ([4]; oral, 50 mg, Day 3 or 5, dose level 5, 50 mg, read-out: T1/2, mean (converted)) was 8.9 h. The AUC(0-inf) [4, 22] was 1030 ng·h/mL, the Cmax [4, 22] was 210 ng/mL and the half-life ([4]; oral, 60 mg, Day 1, dose level 5.5, 60 mg, read-out: T1/2, mean (converted)) was 6.7 h. For the same compound, the Tmax ([4]; oral, 60 mg, Day 1, dose level 5.5, 60 mg, read-out: Tmax, mean) was 1.2 h, the AUC(0-inf) [4, 23] was 1630 ng·h/mL and the Cmax [4, 23] was 262 ng/mL. The half-life ([4]; oral, 60 mg, Day 3 or 5, dose level 5.5, 60 mg, read-out: T1/2, mean (converted)) was 6.9 h, the Tmax ([4]; oral, 60 mg, Day 3 or 5, dose level 5.5, 60 mg, read-out: Tmax, mean) was 1.3 h and the AUC(0-inf) [4, 24] was 1050 ng·h/mL. The Cmax [4, 24] was 178 ng/mL, the half-life ([4]; oral, 70 mg, Day 1, dose level 6, 70 mg, read-out: T1/2, mean (converted)) was 7 h and the Tmax ([4]; oral, 70 mg, Day 1, dose level 6, 70 mg, read-out: Tmax, mean) was 1.6 h. For the same compound, the AUC(0-inf) [4, 25] was 1130 ng·h/mL, the Cmax [4, 25] was 160 ng/mL and the half-life ([4]; oral, 70 mg, Day 3 or 5, dose level 6, 70 mg, read-out: T1/2, mean (converted)) was 6.4 h. It also gave a Tmax ([4]; oral, 70 mg, Day 3 or 5, dose level 6, 70 mg, read-out: Tmax, mean) of 1.5 h, an AUC(0-inf) [4, 26] of 1130 ng·h/mL and a Cmax [4, 26] of 229 ng/mL. For the same compound, the half-life ([4]; oral, 90 mg, Day 1, dose level 7, 90 mg, read-out: T1/2, mean (converted)) was 6.4 h, the Tmax ([4]; oral, 90 mg, Day 1, dose level 7, 90 mg, read-out: Tmax, mean) was 1 h and the AUC(0-inf) [4, 27] was 1230 ng·h/mL. It also gave a Cmax [4, 27] of 116 ng/mL, a half-life ([4]; oral, 90 mg, Day 3 or 5, dose level 7, 90 mg, read-out: T1/2, mean (converted)) of 6.1 h and a Tmax ([4]; oral, 90 mg, Day 3 or 5, dose level 7, 90 mg, read-out: Tmax, mean) of 1.5 h. The Tmax ([4]; po, 10 to 90 mg oral, read-out: Tmax, range over dose levels) was 1 to 2.5 h, the half-life ([4]; po, 10 to 90 mg oral, read-out: Elimination (terminal) half-life, range over dose levels) was 5.6 to 8.9 h and the “Increase in bioavailability compared with vorinostat” value [5] was over 4 fold. For the same compound, the “Longer half-life compared with vorinostat” value [5] was 3.3 fold, the “Selectivity for class I, II and IV HDACs compared with class III HDACs” value [6] was over 1000 fold and the Anti-tumour efficacy ([7]; HCT-116, A2780, PC3, DU145 xenografts, MV4-11, HL-60 and B cell lymphoma murine models) was “dose-dependent anti-tumour efficacy”. For the same compound, the “Drug accumulation and inhibition of histone deacetylation in tumour tissues compared with vorinostat” value ([7]; preclinical experiments) was “prolonged drug accumulation and more sustained inhibition of histone deacetylation”, the “No observed adverse effect level” value [8] was 60 mg m^−2 per day and the “Effects on other zinc-binding enzymes” value [9] was “no effects”. For the same compound, the RPTD [10] was 60 mg and the Anti-proliferative activities [11] was “significant anti-proliferative activities”.
